Results: patent publication US6013666A, “Oxirane carboxylic acid derivative and its manufacturing method” (Jew; Sang Sup, priority 1996, dated 2000)

Legend:
[1] = tested on: Mature rats; experiment: Acute toxicity test on rats, oral; format: in vivo; conditions: rats
Method: (§1) The acute toxicity tests on rats were performed using the compound prepared by the procedure of the Example 1. Mature rats weighing 200-250 g were orally given the compound of the Example 1 dissolved in ethylacetate in parallel with its gradually increasing concentration.

[2] = Acute toxicity test on rats, oral; format: in vivo; conditions: rat, in vivo, rats 200-250 g, dissolved in ethylacetate, calculated by number of killed animals
Method: as §1

[3] = tested on: male diabetes-induced Sprague-Dawley rats; experiment: Blood glucose lowering effects on streptozotocin diabetes-induced rats; format: in vivo; conditions: Rattus norvegicus; STZ diabetes-induced rats, 50 mg/kg oral; measured at 90, 120 and 180 mins, smallest values taken; read-out: Blood glucose lowering rate %
Method: Blood Glucose Lowering Effects of the Compounds Prepared by the Procedures of Example 1~6, 11~18
Two groups of male diabetes-induced Sprague-Dawley rats (each of 4-5 rats weighing about 250 g) were used for this experiment. 45 mg/kg of streptozotocin (STZ) dissolved in 0.1M citrate buffer (pH 4.5, 0-4° C.) was injected to the tail vein of fasted rats for 1 day. After elapse of 7 days, their blood glucose concentration were measured and animals having the blood serum concentration of more than 350 mg/dl were used as diabetes-induced rats for this experiment. The rats were intravenously administered at a daily dose of 1 ml/kg, while the normal control group received equal volume of 0.1M citrate buffer.
7 days after being treated with streptozotocin, diabetes-induced rats were orally administered at a dose of 50 mg/kg of the compounds prepared by the procedures of Examples 1-6, 11~18. Then, at time intervals of 90 mins, 120 mins and 180 mins, their blood glucose concentrations were measured and the smallest values were taken. The compounds of […] were dissolved in 30% ethanol until its final concentration became 2 ml/kg, while the control group was orally received equal volume of 30% ethanol.
Significant difference between two groups was determined by ANOVA test, together with a post hoc test using Newman-Keuls test.

[4] = phase II clinical trials; cited from earlier work

Row | Compound | inhibition in vivo at 50 mg/kg [3] [%] | further results
1 | CCOC(=O)C1(CCCCCCOC(=O)c2ccc(Cl)cc2)CO1 (stereo not drawn) [Example 1, Ethyl-2-[6-(4-chlorophenylcarboxyl)hexyl]-oxirane-2-carboxylic acid] | 11.8 | number of killed animals/number of animals per group ([1]; dose 160 mg/kg): 0/10; number of killed animals/number of animals per group ([1]; dose 300 mg/kg): 1/10; number of killed animals/number of animals per group ([1]; dose 400 mg/kg): 2/10; number of killed animals/number of animals per group ([1]; dose 500 mg/kg): 5/10; number of killed animals/number of animals per group ([1]; dose 600 mg/kg): 8/10; LD50 [2]: 487 mg/kg
2 | CCOC(=O)C1(CCCCCCOC(=O)c2cnc(C)cn2)CO1 (stereo not drawn) [Example 2, Ethyl-2-[6-(5-methyl-2-pyrazincarboxyl)hexyl]-oxirane-2-carboxylic acid] | 28.2 | –
3 | CCOC(=O)C1(CCCCCCOC(=O)c2cncc(Br)c2)CO1 (stereo not drawn) [Example 3, Ethyl-2-[6-(5-bromo-3-pyridincarboxyl)hexyl]-oxirane-2-carboxylic acid] | 8.1 | –
4 | CCOC(=O)C1(CCCCCCOC(=O)c2ccc(OC)nc2OC)CO1 (stereo not drawn) [Example 4, Ethyl-2-[6-(2,6-dimethoxy-5-pyridincarboxyl)hexyl]-oxirane-2-carboxylic acid] | 21.6 | –
5 | CCOC(=O)C1(CCCCCCOC(=O)c2cccs2)CO1 (stereo not drawn) [Example 5, Ethyl-2-[6-(2-thiophenecarboxyl)hexyl]-oxirane-2-carboxylic acid] | 16.8 | –
6 | CCOC(=O)C1(CCCCCCOC(=O)c2cnccn2)CO1 (stereo not drawn) [Example 6, Ethyl-2-[6-(2-pyrazincarboxyl)hexyl]-oxirane-2-carboxylic acid] | 24.1 | –
7 | CCOC(=O)C1(CCCCCCOCc2cccs2)CO1 (stereo not drawn) [Example 11, Ethyl-2-[6-(2-thiophenemethoxy)hexyl]oxirane-2-carboxylic acid] | 75.9 | –
8 | CCOC(=O)C1(CCCCCCn2nc(C)cc2C)CO1 (stereo not drawn) [Example 12, Ethyl-2-[6-(3,5-dimethylpyrazole)hexyl]oxirane-2-carboxylic acid] | 47 | –
9 | CCOC(=O)C1(CCCCCCOCc2ccc(OC)s2)CO1 (stereo not drawn) [Example 13, Ethyl-2-[6-(5-methoxy-2-thiophenemethoxy)hexyl]oxirane-2-carboxylic acid] | 5.9 | –
10 | CCOC(=O)C1(CCCCCCOCc2ccc(C)s2)CO1 (stereo not drawn) [Example 14, Ethyl-2-[6-(5-methyl-2-thiophenemethoxy)hexyl]oxirane-2-carboxylic acid] | 33.7 | –
11 | CCOC(=O)C1(CCCCCCOCc2ccc(C)o2)CO1 (stereo not drawn) [Example 15, Ethyl-2-[6-(5-methyl-2-furanmethoxy)hexyl]oxirane-2-carboxylic acid] | 6.8 | –
12 | CCOC(=O)C1(CCCCCCOCCc2cccs2)CO1 (stereo not drawn) [Example 16, Ethyl-2-[6-(2-thiophenethoxy)hexyl]oxirane-2-carboxylic acid] | 5.6 | –
13 | CCOC(=O)C1(CCCCCCOCc2ccc(Cl)s2)CO1 (stereo not drawn) [Example 17, Ethyl-2-[6-(5-chloro-2-thiophenemethoxy)hexyl]oxirane-2-carboxylic acid] | 19.2 | –
14 | CCOC(=O)C1(CCCCCCOCc2sccc2Cl)CO1 (stereo not drawn) [Example 18, Ethyl-2-[6-(3-chloro-2-thiophenemethoxy)hexyl]oxirane-2-carboxylic acid] | 30.7 | –
15 | CCOC(=O)[C@@]1(CCCCCCOc2ccc(Cl)cc2)CO1 [etomoxir] | – | side effects associated with prolonged administration [4]: enlarged heart and toxicity in the liver
